The test system of one test is CALU-3 cells. Description: Growth inhibition of human tumor line CALU-3. The note with it: CALU-3, lung, ras transformed, read-out: % growth inhib. The test is classed as cell-based. As to the method: (§1) To examine the effects of farnesyltransferase inhibition on cell growth, three cell lines (ras-transformed rat-1, src-transformed rat-1, and parental rat-1 cells) were seeded (see FIG. 7) at low density and allowed to grow for 10 days in the absence or presence of increasing concentrations of BZA-5B (compound 37). See Example 128 for description of cells. On day 0, cells were plated in monolayer culture at 2×10^3 cells per well (24-well plates) in 1 ml DMEM supplemented with 10% fetal calf serum, 100 U/ml penicillin, 100 μg/ml streptomycin, 0.5 mM DTT, 0.025% DMSO, and the indicated concentration of BZA-5B (compound 37). On days 3 and 7, cells were washed and refed with the same medium. At the time indicated in FIG. 7, cells were harvested by trypsinization and counted in a Coulter counter. Panels A, C, E show the growth rate of each cell line in the absence of inhibitor. Panels B, D, F show the inhibition of growth as a function of concentration of BZA-5B at each time point. […]
(§2) To examine the effects of farnesyltransferase inhibition on the growth of human tumor cell lines, several such lines were treated with 25 μM BZA-5B (compound 37B) using a procedure similar to that described in Example 129 above. Cells were refed with fresh media at days 3 and 6 containing the inhibitor, and were harvested and counted as described above. […]

The subject of a further test is HCT-116 cells. The experiment in a line: Growth inhibition of human tumor line HCT-116. The test is classed as cell-based. The note with it: HCT-116, colon, ras transformed, read-out: % growth inhib. As to the method:
as §1, §2

Test [1] deals with nuclear lamins A and B in Met18b-2 cells. The experiment in a line: [3H]mevalonate labeling of farnesylated nuclear lamins in Met18b-2 cells. It is filed as cell-based, Chinese hamster. The note with it: 250 μM; FIG. 3. An excerpt: To study farnesylation in intact cells we used Met18b-2 cells, a line of Chinese hamster ovary (CHO) cells that takes up [3H]mevalonate efficiently (see Faust, J., and Krieger, M. J. Biol. Chem. 262, 1966 (1987)) owing to the production of a mevalonate transport protein (see Kim, C. M., Goldstein, J. L., Brown, M. S. J. Biol. Chem. 267, 23113 (1992)). The [3H]mevalonate is converted by the cells into [3H]farnesyl pyrophosphate and [3H]geranylgeranyl pyrophosphate, which are then attached to proteins (Kim, C. M., Goldstein, J. L., Brown, M. S. J. Biol. Chem. 267, 23113 (1992)). In the assay, stock cultures of Met18b-2 cells were seeded at a density of 3-105 cells per 60 mm dish in 3 ml of medium A (Dulbecco's modified Eagle medium/Ham's F12 medium (1:1, v/v) containing 100 U/ml penicillin and 100 μg/ml streptomycin) supplemented with 5% (v/v) fetal calf serum (FCS). On day 3, each monolayer was refed with 1 ml medium A supplemented with 1% FCS (dialyzed against 0.15 M NaCl). At this point the cells were treated with 100 μM compactin (see Brown, M. S., Faust, J. R., Goldstein, J. L., Kaneko, I., and Endo, A. J. Biol. Chem. 253, 1121 (1978)) which blocks the synthesis of unlabeled mevalonate within the cells. […] Protein concentrations were determined using the BCA protein assay reagent (Pierce) according to the manufacturer's instructions. […]

SMILES strings stand for the structures.

On to `COC(=O)[C@H](CCSC)NC(=O)CN1C(=O)C(N(C)C(=O)[C@@H](N)CS)N=C(c2ccccc2)c2ccccc21` (single isomer, unassigned) [37B], for which the inhibition at 25 µM with CALU-3 cells amounted to 52%; in the test on HCT-116 cells, 0%.

`CSCC[C@H](NC(=O)CN1C(=O)C(N(C)C(=O)[C@@H](N)CS)N=C(c2ccccc2)c2ccccc21)C(=O)O` (single isomer, unassigned) [27B]: the “labeling of farnesylated lamins (F-NL)” value in test [1] is “reduced moderately the labeling of the farnesylated lamins”.

The values above are taken from patent US5843941A, “Ras farnesyl transferase inhibitors” (Genentech, Inc., priority 1994, dated 1998).
